Where two headings read alike, the source gives them in different places.

For experiment [1], the system named is diffuse knapweed (Centauria. diffusa) seeds. The experiment is described as follows: Protocol 1 clean seed dip treatment and germination test, diffuse knapweed. Format: in vivo. The settings on record: non-soil environment. As to the method: (§1) All seeds for a Protocol 1 Test were removed from the flower parts and used as clean seeds. A treatment consisted of 100 seeds with four replications for a total of at least 400 seeds per treatment. In some cases extra seeds were treated to accommodate additional germination tests, if needed. In lots of 100, seeds were first rinsed with water to simulate a wash treatment. These pre-wetted seeds were then dipped for one minute in one of the Treatment Rinse percent solutions per volume as show below. Three quality glyphosate products were used. […] The inert ingredients typically comprise tallow amine, lecithin, algaecide and purified water. […] The surfactants added to the percent solution were a penetrator, comprising methylated seed oil, and a spreader, comprising polyether-polymethylsiloxane-copolymer polyether or silicone polyether copolymer.
(§2) Seeds were stirred during the dip to assure all seeds were exposed to the solution. Treated seeds were allowed to air dry with the time to dry recorded. Three main seed types were used in the Protocol 1 Test: whitetop (Cardaria draba), spotted knapweed (Centauria maculosa), and diffuse knapweed (Centauria. diffusa). Two additional seed types were used for one treatment each, Russian thistle (Salsola tragus) and Scotch thistle (Onopordum acanthium).
(§3) When seeds were thoroughly dry after treatment they were packaged and sent for germination testing. […]

For experiment [2], the system named is Scotch thistle (Onopordum acanthium) seeds. The experiment is described as follows: Protocol 1 clean seed treatment, germination test in soil environment, Scotch thistle. Format: in vivo. The protocol:
as §1, §2, §3

Experiment [3] concerns whitetop (Cardaria draba) seeds. The experiment is described as follows: Protocol 1 clean seed dip treatment and germination test, whitetop. The class given is in vivo. The settings on record: non-soil environment. As to the method:
as §1, §2, §3

Experiment [4] deals with Russian thistle (Salsola tragus) seeds. The experiment is described as follows: Protocol 1 clean seed dip treatment and germination test, Russian thistle. Format: in vivo. The settings on record: non-soil environment. As to the method: as §1, §2, §3
Experiment [5] relates to spotted knapweed (Centauria maculosa) seeds. The experiment is described as follows: Protocol 1 clean seed dip treatment and germination test, spotted knapweed. The class given is in vivo. The following applies: non-soil environment. As to the method: as §1, §2, §3
For experiment [6], the system named is Scotch thistle (Onopordum acanthium) seeds. The following applies: soil application of glyphosate; cited from earlier work.

As for `O=C(O)CNCP(=O)(O)O` [glyphosate], the “control, considering treated seeds that may grow to reproductive maturity” value was determined as 99% in experiment [1]; 100% in experiment [2] (Scotch thistle, non-soil environment); 95% in experiment [3]; 72% in experiment [4]; 100% in experiment [5]. Moreover, the “control of Scotch thistle” value is reported as “controlled” in experiment [2] (direct application of glyphosate to the seed, then placed in soil to germinate) and “not controlled” in experiment [6].

Source of the values: patent US9084395B2, “Method to arrest growth of invasive species' seeds while in non-natural environment prior to transport” (priority 2012, dated 2015).
